Values of other authors, collected in US20100310475A1, “Biocide Capsules, Preparation Comprising them and Sanitary Pad Comprising the Preparation” (DOLHAY KLINIKA EG[…]., priority 2007, published 2010).

Test system: pathogens
Conditions: water solution

For “polyvinyl-pyrrolidone iodine [PVP-iodine]”, the most effective concentration-range is listed as 0.01-1 % by weight.
